According to patent US8334110B2, “Detection of blood plasma amygdalin of dissipating blood stasis botanical” (Shanghai Sundise Chinese Medicine Technology Development …, priority 2007, dated 2012):

Assay: UPLC/MS determination of blood plasma Amygdalin after administration of the body resistance-strengthening and blood stasis-dissipating botanical composition
Assay type: in vivo
Conditions: blood plasma of mammals after drenched with body resistance-strengthening and blood stasis-dissipating (Fuzheng Huayu, FZHY) botanical composition; UPLC-MS, FIG. 1 (plasma taken 0.5 hours after administration)
From the text: a. After the administration of the body resistance-strengthening and blood stasis-dissipating botanical composition to mammals, first add 2-5 mol/L phosphoric acid to the composition-containing mammalian blood plasma and mix to homogenize, the volumetric ratio of the blood plasma to phosphoric acid is 1:2-3, feed the same to a Waters Oasis HLB cartridge that has been activated by methanol and water, leach with water and 80-100% methanol and elute with 0.2-1% ammonia methanol, then dry through evaporation and enrich the eluent at 25-30° C., and re-dissolve the eluent with a mobile phase;
Chromatographic conditions: chromatographic column: Acquity UPLC BEH C18, 2.1×100 mm, mobile phase A: Water-Acetonitrile-Formic acid 95:5:0.1 v/v/v, mobile phase B: Acetomtrile-Formic acid 100:0.1 v/v; MS conditions: electrospray ionization (ESI) ion source, detection in the positive ion mode, and the mass scanning range m/z 150˜800.
The ESI ion source in said Step (2) employs detection in the positive ion mode; the desolvation gas flow rate is 440 L/h, the desolvation gas temperature is 300° C., the cone gas flow rate is 50 L/h, the ion source temperature is 100° C., the spray capillary voltage is 3800 V, the sampling cone voltage is 30 V, the extracting cone voltage is 2.00 V, and the lens voltage is 0.1 V. The mass scanning range is m/z 150˜800.
1. […]

N#C[C@H](O[C@@H]1O[C@H](CO[C@@H]2O[C@H](CO)[C@@H](O)[C@H](O)[C@H]2O)[C@@H](O)[C@H](O)[C@H]1O)c1ccccc1 [Amygdalin]
Detection of Amygdalin in blood plasma: can be detected
